Data as given in doi:10.1101/2023.07.11.548539v1, “A side-by-side comparison of peptide-delivered antisense antibiotics employing different nucleotide mimics” (bioRxiv, 2023).
Oligonucleotides are written 5' to 3', each unit as a sugar letter and its base; * is a phosphorothioate linkage, no mark a phosphodiester; rarer units and linkages stand in square brackets, end groups in braces. Plain capitals give the bases only. d = 2'-deoxy (DNA)

Assays:
[1] = test system: Salmonella; assay: Salmonella growth assay; assay type: cell-based, Salmonella enterica serovar Typhimurium strain SL1344; design: key to Antibacterial activity: -: Effect strength is represented by additional (+) signs.; Effect strength is represented by additional (+) signs.; ++: Effect strength is represented by additional (+) signs.; +++: Effect strength is represented by additional (+) signs; details: for Effect on Salmonella growth (in words): KFF-ASO conjugates or unconjugated peptide, 24 h growth kinetics, OD600, MHB, 37 °C, up to 10 µM; for Antibacterial activity: summary grade, ASO conjugated to the carrier peptide
Protocol: An overnight bacterial cell culture was diluted 1:100 in fresh MHB and grown to OD600 0.5. The obtained culture was diluted to approximately 10^5 cfu/ml in non-cation-adjusted MHB. Subsequently, 190 µl bacterial solution was dispensed into a 96-well plate (Thermo Fisher Scientific) along with 10 µl of a 200 µM solution of the ASOs. Growth was monitored by measuring the OD at 600 nm every 20 min in a Synergy H1 plate reader (Biotek) with continuous double-orbital shaking (237 cpm) at 37 °C for 24 h.

[2] = test system: Cy5 5'-labelled RNA, nucleotides -20 to +20 of acpP (target mRNA); assay: Microscale thermophoresis (MST) binding affinity; design: species or system Salmonella enterica; key to Binding affinity (in vitro): -: Effect strength is represented by additional (+) signs.; Effect strength is represented by additional (+) signs.; ++: Effect strength is represented by additional (+) signs.; +++: Effect strength is represented by additional (+) signs; details: unconjugated ASO; for Binding affinity (in vitro): summary grade
Protocol: For each binding experiment, Cy5 5’-labelled RNA (as described above) was diluted to 10 nM in Buffer A (50 mM Tris-HCl pH 7.6, 250 mM KCl, 5 mM MgCl2, 1 mM DTT, 5% glycerol supplemented with 0.05% Tween 20). A series of 16 tubes with different ASO dilutions (500 nM to 0.015 nM) were prepared in Buffer A. For measurements, each ASO dilution was mixed with one volume of labeled RNA, which led to a final concentration of 5.0 nM labeled RNA and 250 nM to 0.007 nM of ASOs. The reaction was mixed by pipetting and incubated for 30 min at RT in the dark. Capillary forces were used to load the samples into Monolith NT.115 Premium Capillaries; measurements were performed using a Monolith Pico instrument (NanoTemper Technologies Gmbh, Munich, Germany) at an ambient temperature of 25 °C. Instrument parameters were adjusted to 5% LED power, medium MST power, and MST on-time of 2.5 s. An initial fluorescence scan was performed across the capillaries to determine sample quality, which was followed by 16 thermophoresis measurements. […] Data of two independent measurements were analyzed for the ΔFnorm value determined by the MO Affinity Analysis software (NanoTemper Technologies Gmbh, Munich, Germany). The fitting for EC50 values was done using the Hill equation within the MO Affinity Analysis software. Data are presented as the mean EC50 values of two independent experiments.

[3] = test system: outer membrane of Salmonella; assay: Outer membrane permeabilization (NPN fluorescence); assay type: cell-based, Salmonella enterica serovar Typhimurium strain SL1344; design: key to Outer-membrane permeation: -: Effect strength is represented by additional (+) signs.; Effect strength is represented by additional (+) signs.; ++: Effect strength is represented by additional (+) signs.; +++: Effect strength is represented by additional (+) signs; details: for Outer-membrane permeation: summary grade, ASO conjugated to the carrier peptide; for Outer membrane permeabilization, NPN fluorescence (in words): test compounds 10 µM final, added at 14 min, NPN 10 µM, 5 mM HEPES, 5 mM glucose pH 7.2, CTAB and Polymyxin B positive controls
Protocol: The experiments were performed by modifying previously published protocols ([48]–[50]). Salmonella (WT SL1344, JVS-1574) were grown overnight in 4 ml MHB medium at 37 °C (with shaking at 220 rpm). Then the culture was diluted 1:100 and grown until OD 0.5 (∼2×10^8 cfu/mL). This culture was harvested and washed two times with 5mM HEPES and further diluted to OD 0.2 in 5 mM HEPES supplemented with 5 mM Glucose (pH 7.2). These cells were then incubated with N-phenylnaphthylamine (NPN) (Sigma, USA) at a final concentration of 10 µM. 190 µl of NPN treated cells were transferred into 96-well back plates with transparent bottom and fluorescence (excitation = 350 nm, emission = 420 nm) was recorded for 60 min (reading was performed every minute) using a Synergy H1 plate reader (Biotek). On the fourteenth minute, 10 µl of the test compounds (10 µM final concentration) was added into the wells. CTAB (Sigma, USA) 200 µM or Polymyxin B (Sigma, USA) 10 µg/ml (final concentration of 0.5 µg/ml) were used as positive controls, while water was used as negative control. The fluorescence of the wells were monitored using the same settings as above. The experiment was performed three times and Figure 10 is based on a single representative experiment.

[4] = test system: AcpP::3xFLAG fusion protein; assay: Western blot of intracellular AcpP protein levels; assay type: cell-based, Salmonella SL1344 AcpP::3xFLAG; design: key to AcpP protein reduction: -: Effect strength is represented by additional (+) signs.; Effect strength is represented by additional (+) signs.; ++: Effect strength is represented by additional (+) signs.; +++: Effect strength is represented by additional (+) signs; details: for AcpP protein reduction: summary grade, KFF-ASO treatment (Figure 9); for AcpP protein level (in words): 5 µM KFF-ASO conjugate, 30, 60, 120, 240 min for PNA and PMO, 120 min for all other ASOs
Protocol: Salmonella wild type (WT) and SL1344 AcpP::3xFLAG (chromosmal fusion of full length acpP to 3XFLAG-tag as described earlier([47]); internal strain number JVS-12398) were grown overnight in non-cation adjusted MHB. Bacterial cultures were diluted 1:100, grown to OD600 0.5 and subsequently diluted to approximately 10^6 cfu/ml in MHB. Then, 1.9 ml of each diluted bacterial solution was transferred into 5 ml low-binding tubes, pre-incubated at 37 °C for 10 min and treated with 100 µl of ASOs to adjust a final concentration of 5 µM. Water was added as negative control. The treatment with PNA and PMO was performed with aeration at 37 °C and 220 rpm shaking for 30, 60, 120 and 240 minutes while for all other ASOs, they were treated for 120 min only. Subsequently, the cells were collected by centrifugation at 4 °C and 16,000 ×g for 5 min, resuspended in 1× Protein Loading Buffer (62.6 mM Tris–HCl pH 6.8, 2 % SDS, 0.1 mg/ml bromophenol blue, 15.4 mg/ml DTT, 10 % glycerol) and denatured at 95 °C for 10 min.
For detection of AcpP::3xFLAG protein levels, samples were separated on an 12% SDS-PAA gel and transferred onto a Nitrocellulose membrane via semi dry western blotting. The membrane was probed with an α-FLAG antibody (Sigma; 1:1,000 in 1x TBS-T containing 3% BSA) at 4 °C overnight. After washing in 1x TBS-T, the membrane was incubated with a secondary HRP-conjugated anti-mouse antibody (Thermo Scientific; 1:5,000 in 1x TBS-T containing 1% BSA) at RT for 1 hour. Excessive antibody was removed by repeated wash steps in 1x TBS-T and the membrane was developed by Amersham™ ECL Select™ Western Blotting Detection Reagent Kit (Cytiva).

Row | Substance | Effect on Salmonella growth (in words) [1] | Antibacterial activity [1] | Binding affinity (in vitro) [2] | Outer-membrane permeation [3] | AcpP protein reduction [4] | Outer membrane permeabilization, NPN fluorescence (in words) [3] | AcpP protein level (in words) [4] | Binding affinity (EC50, nM) ([2]; MST, 5.0 nM labelled RNA, ASO 250 nM to 0.007 nM, 30 min RT, 25 °C, Hill fit, mean ± SD of two independent experiments)
1 | RNA-OMe: 10mer 2'-methylated RNA antisense oligomer, sequence CTCATACTCT, targeting acpP (all 2'-O-methyl, backbone and T or U not given here) | no activity at all | - | ++ | - | - |  |  | 
2 | LNA: 10mer 2'-4'-locked RNA antisense oligomer, sequence CTCATACTCT, targeting acpP (all LNA, backbone and methylation of C not given here) | slight growth retardation was observed at 5 µM and 10 µM | - | +++ | - | - |  |  | 
3 | PMO: 10mer phosphorodiamidate morpholino antisense oligomer, sequence CTCATACTCT, targeting acpP (all phosphorodiamidate morpholino (PMO)) |  | + | ++ | ++ | + | this ability is retained | gradual depletion of AcpP, albeit less pronounced than PNA | 
4 | DNA-PTO: 10mer phosphorothioate-modified DNA antisense oligomer, sequence CTCATACTCT, targeting acpP (antisense dC*dT*dC*dA*dT*dA*dC*dT*dC*dT) | slight growth retardation was observed at 5 µM and 10 µM | - | - | - | - |  |  | Could not be determined
5 | RNA-MOE: 10mer 2'-methoxyethylated RNA antisense oligomer, sequence CTCATACTCT, targeting acpP (all 2'-MOE, backbone and methylation of C not given here) | slight growth retardation was observed at 5 µM and 10 µM | - | +++ | - | - |  |  | 
6 | PNA: 10mer peptide nucleic acid antisense oligomer, sequence CTCATACTCT, targeting acpP (all peptide nucleic acid (PNA)) |  | ++ | +++ | ++ | ++ | this ability is retained | depletion in AcpP levels can be observed from 60 min post treatment onwards | 
7 | RNA-F: 10mer 2'-fluorinated RNA antisense oligomer, sequence CTCATACTCT, targeting acpP (all 2'-fluoro, backbone and T or U not given here) | slight growth retardation was observed at 5 µM and 10 µM | - | + | - | - |  |  | 
